Source: patent publication US11147272B2, “Pyridone compounds and agricultural and horticultural fungicides comprising the same as active ingredients” (MITSUI CHEMICALS AGRO, INC., priority 2017, dated 2021)

How the values were obtained:
[1] = tested on: Plasmopara viticola; test: Test Example G: Downy mildew on vine; conditions: for Test G control value: 7 to 10 days after inoculation; for Test G control value class: Downy mildew on vine (Neomuscat), 2.5 ml/pot, assessed 7 to 10 days after inoculation
[2] = tested on: Alternaia brassicicola; test: Test Example C: Alternaria sooty spot on cabbage; type: in vivo; conditions: for Test C control value class: class of control value
Excerpt: Seeds of a test plant (cabbage variety: Shikidori) were planted and cultivated until the cotyledons extended.
<Control Value> Control value=100{1−(n/3)}

[3] = tested on: Botrytis cinerea; test: Test Example B: Gray mold on tomato; conditions: for Test B control value class: class of control value
[4] = tested on: Magnaporthe grisea; test: whole plant or invertebrate; type: in vivo; conditions: for Test A control value class: class of control value
[5] = tested on: Puccinia recondita; test: Test Example E: Brown rust on wheat; type: in vivo; conditions: for Test E control value class: class of control value
[6] = tested on: Phytophthora infestans; test: whole plant or invertebrate; type: in vivo; conditions: for Test F control value class: class of control value
[7] = tested on: Blumeria graminis f. sp. hordei; test: Test Example D: Powdery mildew on barley; conditions: for Test D control value class: class of control value
[8] = tested on: Colletotrichum orbiculare; test: Test Example H: Anthracnose on cucumber; conditions: for Test H control value: 6 to 10 days after inoculation; for Test H control value class: Anthracnose on cucumber (Sagami Hanjiro), 2.5 ml/pot, assessed 6 to 10 days after inoculation
[9] = 250 ppm drug solution sprayed (2.5 ml/pot), grape Neomuscat
[10] = 250 ppm drug solution sprayed on test plant
[11] = 250 ppm drug solution sprayed (2.5 ml/pot), cucumber Sagami Hanjiro
[12] = Downy mildew on vine, 250 ppm spray
[13] = Alternaria sooty spot on cabbage, control value class
[14] = Gray mold on tomato, control value class
[15] = Blast on rice, control value class
[16] = Brown rust on wheat, control value class
[17] = Late blight on tomato, control value class
[18] = Powdery mildew on barley, control value class
[19] = Anthracnose on cucumber, 250 ppm spray
[20] = Alternaria sooty spot on cabbage

Structure (SMILES)	Test G control value [1, 12]	Test C control value [2, 13]	Test B control value [3, 14]	Test A control value [4, 15]	Test E control value [5, 16]	Test F control value [6, 17]	Test D control value [7, 18]	Test H control value [8, 19]	Test G control value class ([1]; 250 ppm spray)	Test C control value class [2, 20]	Test B control value class ([3]; Gray mold on tomato)	Test A control value class ([4]; Blast on rice)	Test E control value class ([5]; Brown rust on wheat)	Test F control value class ([6]; Late blight on tomato)	Test D control value class ([7]; Powdery mildew on barley)	Test H control value class ([8]; 250 ppm spray)	also measured
CC#CCOc1cc(F)c(-c2c(CCC)cc(Br)c(=O)n2CC)c(F)c1 [compound 462]																	Test G control value [1, 9]: L (50% or less control value); Test C control value [2, 10]: H (more than 50% control value); Test B control value [3, 10]: H (more than 50% control value); Test A control value [4, 10]: L (50% or less control value); Test E control value [5, 10]: H (more than 50% control value); Test F control value [6, 10]: H (more than 50% control value); Test D control value [7, 10]: L (50% or less control value); Test H control value [8, 11]: H (more than 50% control value)
CCn1c(-c2ccc(OC)cc2)c(C(=O)C(C)C)cc(Cl)c1=O [compound 222]	L (50% or less control value)	H (more than 50% control value)	H (more than 50% control value)	L (50% or less control value)	H (more than 50% control value)	L (50% or less control value)	H (more than 50% control value)	L (50% or less control value)									
CC(C)C(=O)c1cc(Cl)c(=O)n(C)c1-c1c(F)cc(F)cc1F [compound 448]																	Test G control value [1, 9]: L (50% or less control value); Test C control value [2, 10]: L (50% or less control value); Test B control value [3, 10]: H (more than 50% control value); Test A control value [4, 10]: L (50% or less control value); Test E control value [5, 10]: L (50% or less control value); Test F control value [6, 10]: L (50% or less control value); Test D control value [7, 10]: L (50% or less control value); Test H control value [8, 11]: L (50% or less control value)
CCCc1cc(Br)c(=O)n(C)c1-c1ccc(OC)cc1Cl [compound 336]	H (more than 50% control value)	H (more than 50% control value)	H (more than 50% control value)	H (more than 50% control value)	H (more than 50% control value)	L (50% or less control value)	L (50% or less control value)	H (more than 50% control value)									
CCn1c(-c2c(F)cc(F)cc2F)c(C(C)(C)O)cc(Cl)c1=O [compound 150]									H (more than 50% control value)	H (more than 50% control value)	H (more than 50% control value)	H (more than 50% control value)	H (more than 50% control value)	L (50% or less control value)	H (more than 50% control value)	H (more than 50% control value)	
CCn1c(-c2c(F)cc(F)cc2F)c(C(Cl)=CCl)cc(Cl)c1=O [compound 309]	H (more than 50% control value)	H (more than 50% control value)	H (more than 50% control value)	H (more than 50% control value)	H (more than 50% control value)	L (50% or less control value)	H (more than 50% control value)	H (more than 50% control value)									
CCn1c(-c2c(F)cc(OC)cc2F)c(CC(C)C)cc(Cl)c1=O [compound 42]									H (more than 50% control value)	H (more than 50% control value)	H (more than 50% control value)	H (more than 50% control value)	H (more than 50% control value)	L (50% or less control value)	H (more than 50% control value)	H (more than 50% control value)	
CCc1cc(Cl)c(=O)n(C)c1-c1ccc(OC)cc1Cl [compound 324]	H (more than 50% control value)	H (more than 50% control value)	H (more than 50% control value)	L (50% or less control value)	H (more than 50% control value)	L (50% or less control value)	L (50% or less control value)	H (more than 50% control value)									
CCCc1ccc(=O)n(CC)c1-c1ccc(OC)cc1Cl [compound 318]	L (50% or less control value)	H (more than 50% control value)	H (more than 50% control value)	L (50% or less control value)	H (more than 50% control value)	H (more than 50% control value)	H (more than 50% control value)	H (more than 50% control value)									
CCOc1ccc(-c2c(CC(C)C)cc(Cl)c(=O)n2CC)c(F)c1 [compound 123]									H (more than 50% control value)	H (more than 50% control value)	H (more than 50% control value)	H (more than 50% control value)	H (more than 50% control value)	L (50% or less control value)	H (more than 50% control value)	H (more than 50% control value)	
CC=C(C)c1cc(Cl)c(=O)n(CC)c1-c1c(F)cccc1F [compound 28]									H (more than 50% control value)	H (more than 50% control value)	H (more than 50% control value)	H (more than 50% control value)	H (more than 50% control value)	L (50% or less control value)	H (more than 50% control value)	H (more than 50% control value)	
CCOCc1cc(Cl)c(=O)n(CC)c1-c1c(F)cccc1F [compound 62]									H (more than 50% control value)	H (more than 50% control value)	H (more than 50% control value)	H (more than 50% control value)	H (more than 50% control value)	L (50% or less control value)	H (more than 50% control value)	H (more than 50% control value)	
C#CC(OC)c1cc(Cl)c(=O)n(CC)c1-c1c(F)cc(F)cc1F (stereo not drawn) [compound 285]	L (50% or less control value)	H (more than 50% control value)	H (more than 50% control value)	H (more than 50% control value)	H (more than 50% control value)	L (50% or less control value)	H (more than 50% control value)	H (more than 50% control value)									
CCn1c(-c2c(F)cccc2F)c(C(C)OC)cc(Cl)c1=O (stereo not drawn) [compound 18]									H (more than 50% control value)	H (more than 50% control value)	H (more than 50% control value)	H (more than 50% control value)	H (more than 50% control value)	H (more than 50% control value)	H (more than 50% control value)	H (more than 50% control value)	
C=CCOc1ccc(-c2c(CC(C)C)cc(Cl)c(=O)n2CC)c(F)c1 [compound 124]									L (50% or less control value)	H (more than 50% control value)	H (more than 50% control value)	H (more than 50% control value)	H (more than 50% control value)	L (50% or less control value)	H (more than 50% control value)	H (more than 50% control value)	
